In patent publication US20070014786A1, “Methods for treating taxol-induced gut disorder” (RINAT NEUROSCIENCE CORP., priority 2003, published 2007):
Each block holds one molecule with its values, some of them ahead of it.

How the values were obtained:
[1] = tested on: Female Swiss-Webster mice; test: Taxol-induced gut disorder mouse model: intestinal hypertrophy (weight and length of GI tract) and autopsy; type: in vivo
Method: Intestinal hypertrophy was assessed by measuring weight and length of the gastrointestinal (“GI”) tract as follows: animals were sacrificed, and the weight and length of the GI tract was assessed as follows: the entire GI tract was removed, emptied of any contents, and weighed. The GI tract was then separated into stomach, small intestine, and caecum plus large intestine and those parts were individually weighed.
Selected animals were sacrificed and subjected to autopsy. […] Ascites production was not observed in control animals.
Intestinal hypertrophy was assessed as described above. […] Ascites production was not observed in control animals.

[2] = tested on: Female Swiss-Webster mice; test: Taxol-induced gut disorder mouse model: abdominal distension score; details: second experiment; taxol 300, 375 or 450 mg/m^2; scored weekly
Method: Female Swiss-Webster mice, eight weeks old were treated with vehicle alone (control), taxol alone, or agonist anti-trkC mouse monoclonal antibody 2256 (PCT WO 01/98361; Urfer et al. J. Biol. Chem. (1998) 273:5829-5840)) and taxol. Taxol was obtained from Calbiochem and prepared as a 20 mg/kg solution in Cremophor/ethanol (50:50 w/w), which was diluted with saline (1 part Cremophor/ethanol to four parts saline vol:vol), filtered through a 0.1 micron filter and administered intraperitoneally (“IP”) within 30 minutes of preparation. All treatment animals received one round of three taxol or control (vehicle) treatments every other day for three doses, i.e., day 1, 3 and 5 of the protocol. […] Taxol dose was determined on a mg/m^2 basis, using the formula that body surface area (in square cm) equals 10.5 times the weight in grams to the two-thirds power. […]
Taxol-induced gut disorder was assessed by measuring degree and quality of abdominal distension and intestinal hypertrophy after lifting the individual mouse by the tail. Degree and quality of taxol-induced abdominal distension was scored by a blinded observer using the following five point scale: • 0-no noticeable abdominal bulge • 1-slight bulge • 2-distinct bulge (may be full stomach) • 3-fat mouse • 4-definite lumpy abdomen • 5-swollen abdomen […]

[3] = target: T1, low affinity receptor (LNGFR), p75NTR or p75 (Homo sapiens, UniProt P08138); details: according to current knowledge (background); cited from earlier work
T1 sequence (P08138 29-427): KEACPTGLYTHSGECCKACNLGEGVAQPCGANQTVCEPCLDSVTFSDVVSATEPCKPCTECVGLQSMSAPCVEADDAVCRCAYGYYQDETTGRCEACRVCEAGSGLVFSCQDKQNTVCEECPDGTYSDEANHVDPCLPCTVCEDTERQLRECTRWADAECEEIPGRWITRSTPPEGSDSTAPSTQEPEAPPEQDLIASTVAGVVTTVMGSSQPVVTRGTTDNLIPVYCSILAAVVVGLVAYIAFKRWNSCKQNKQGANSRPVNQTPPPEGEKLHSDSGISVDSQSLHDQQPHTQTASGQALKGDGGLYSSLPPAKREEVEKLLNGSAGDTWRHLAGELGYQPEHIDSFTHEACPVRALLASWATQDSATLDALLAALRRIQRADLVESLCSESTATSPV

[4] = taxol 450 mg/m^2 (four weeks) or 375 mg/m^2 (six weeks)

gut distension (FIG. 2) [2]: resulted in gut distension
Molecule: CC(=O)O[C@H]1C(=O)[C@@]2(C)[C@H]([C@H](OC(=O)c3ccccc3)[C@]3(O)C[C@H](OC(=O)[C@H](O)[C@@H](NC(=O)c4ccccc4)c4ccccc4)C(C)=C1C3(C)C)[C@]1(OC(C)=O)CO[C@@H]1C[C@@H]2O [taxol, paclitaxel]
length of the GI tract (FIG. 8) [1, 4]: significant decrease
raw weight of the caecum plus large intestine (FIG. 9) [1, 4]: significant increase
weight of the caecum plus large intestine (FIG. 6) ([1]; taxol 450 mg/m^2, four weeks): significant increase
weight of the small intestine (FIG. 5) ([1]; taxol 450 mg/m^2, four weeks): significant increase
weight of the GI tract from stomach through colon (FIG. 4) ([1]; taxol 450 mg/m^2, sacrificed at four weeks): significant increase
intestinal obstruction(s) and/or stool softening or diarrhea ([1]; taxol-treated animals at autopsy): exhibited intestinal obstruction(s) and/or stool softening or diarrhea
ascites in the peritoneum at autopsy ([1]; taxol-treated animals with abdominal distension, not observed in control animals): Production of ascites in the peritoneum was noted

Molecule: nerve growth factor [NGF]
Kd [3]: 2 nM

Molecule: neurotrophin-3 [NT-3]
Kd [3]: 2 nM
